Source: patent US20130035361A1, “USE OF ERGOTHIONEINE AS A PRESERVATIVE IN FOODS AND BEVERAGES” (priority 2007, published 2013)
Converted amounts (≈) assume the structure as drawn.

Experiments:
[1] = ERGO concentration found in Pinot noir wines after 18 months of bottle storage; assay type: physicochemical; details: for ERGO Found: Pinot noir wine, after 18 months bottle storage
Text: According to the invention, sulfur dioxide was replaced in whole or in part with L-ergothioneine in Pinot noir wines at bottling.

[2] = cited from earlier work
[3] = system: LPO formation in mouse liver; details: cited from earlier work
[4] = Stability over time in food and beverages; assay type: physicochemical; details: stored over a period of several years
liver tissue of rats = details: exogenous L-ergothioneine; cited from earlier work
[5] = per one unit of L-Ergothioneine; cited from earlier work

Row | SMILES | ERGO Found ([1]; SO2 added 30 mg/L, ERGO added 0 mg/L at bottling) [mg/L] | ERGO Found ([1]; SO2 added 70 mg/L, ERGO added 0 mg/L at bottling) [mg/L] | water solubility [2] | solubility limit ([2]; room temperature) [M] | LPO formation [3] | decomposition of existing LPO [3] | stability over time [4] | ERGO Found ([1]; SO2 added 0 mg/L, ERGO added 10 mg/L at bottling) [mg/L] | ERGO Found ([1]; SO2 added 0 mg/L, ERGO added 30 mg/L at bottling) [mg/L] | ERGO Found ([1]; SO2 added 0 mg/L, ERGO added 50 mg/L at bottling) [mg/L] | ERGO Found ([1]; SO2 added 0 mg/L, ERGO added 70 mg/L at bottling) [mg/L] | presence of ergothioneine in the wine after storage ([1]; Pinot noir wines, SO2 replaced in whole or in part at bottling, after 18 months of storage) | lipid peroxidation by toxic compounds (liver tissue of rats) | units of Vitamin E equivalent to one unit [5]
1 | O=S=O [SO2, sulfur dioxide, reference compound] | 7.3 | 7.5 | – | – | – | – | – | – | – | – | – | – | – | –
2 | C[N+](C)(C)[C@@H](Cc1c[nH]c(=S)[nH]1)C(=O)[O-] [L-ergothioneine] | – | – | readily water soluble | 0.9 (≈ 206 mg/mL) | inhibited LPO formation | enhanced the decomposition of existing LPO | very stable over time | 8.8 | 29.8 | 55.4 | 81.2 | still present in the wine | prevent lipid peroxidation | ~7000 units of Vitamin E
